Assay results from patent publication US6972299B2, “Phenylethynyl and styryl derivatives of imidazole and fused ring heterocycles” (Hoffmann-La Roche Inc., priority 2000, dated 2005).

Molecular target: T1, rat mGlu 5a receptor (Rattus norvegicus, UniProt P31424)
T1 construct: expressed in transfected cells; host or cells: EBNA cells (transient transfection)
Experiment: [Ca2+]i measurement (FLIPR) on mGlu 5a transfected EBNA cells, antagonist mode
Type: cell-based
Conditions: rat mGlu 5a transiently transfected EBNA cells, Fluo 3-AM, tested against 10 μM glutamate as agonist
Method: The pharmacological activity of all of the example compounds was tested using the following method: • cDNA encoding rat mGlu 5a receptor was transiently transfected into EBNA cells using a procedure described by E.-J. Schlaeger and K. Christensen (Transient gene expression in mammalian cells grown in serum-free suspension culture; Cytotechnology, 30: 71-83,1999). [Ca^2+]i measurements were performed on mGlu 5a transfected EBNA cells after incubation of the cells with Fluo 3-AM (obtainable by FLUKA, 0.5 μM final concentration) for 1 hour at 37° C. followed by 4 washes with assay buffer (DMEM supplemented with Hank's salt and 20 mM HEPES. [Ca^2+]i measurements were done using a fluorometric imaging plate reader (FLIPR, Molecular Devices Corporation, La Jolla, Calif., USA). When compounds were evaluated as antagonists they were tested against 10 μM glutamate as agonist.
The inhibition (antagonists) curves were fitted with a four parameter logistic equation giving IC50, and Hill coefficient using the iterative non linear curve fitting software Origin (Microcal Software Inc., Northampton, Mass., USA).

T1 sequence (P31424 21-1171 isoform P31424-2 limits assumed): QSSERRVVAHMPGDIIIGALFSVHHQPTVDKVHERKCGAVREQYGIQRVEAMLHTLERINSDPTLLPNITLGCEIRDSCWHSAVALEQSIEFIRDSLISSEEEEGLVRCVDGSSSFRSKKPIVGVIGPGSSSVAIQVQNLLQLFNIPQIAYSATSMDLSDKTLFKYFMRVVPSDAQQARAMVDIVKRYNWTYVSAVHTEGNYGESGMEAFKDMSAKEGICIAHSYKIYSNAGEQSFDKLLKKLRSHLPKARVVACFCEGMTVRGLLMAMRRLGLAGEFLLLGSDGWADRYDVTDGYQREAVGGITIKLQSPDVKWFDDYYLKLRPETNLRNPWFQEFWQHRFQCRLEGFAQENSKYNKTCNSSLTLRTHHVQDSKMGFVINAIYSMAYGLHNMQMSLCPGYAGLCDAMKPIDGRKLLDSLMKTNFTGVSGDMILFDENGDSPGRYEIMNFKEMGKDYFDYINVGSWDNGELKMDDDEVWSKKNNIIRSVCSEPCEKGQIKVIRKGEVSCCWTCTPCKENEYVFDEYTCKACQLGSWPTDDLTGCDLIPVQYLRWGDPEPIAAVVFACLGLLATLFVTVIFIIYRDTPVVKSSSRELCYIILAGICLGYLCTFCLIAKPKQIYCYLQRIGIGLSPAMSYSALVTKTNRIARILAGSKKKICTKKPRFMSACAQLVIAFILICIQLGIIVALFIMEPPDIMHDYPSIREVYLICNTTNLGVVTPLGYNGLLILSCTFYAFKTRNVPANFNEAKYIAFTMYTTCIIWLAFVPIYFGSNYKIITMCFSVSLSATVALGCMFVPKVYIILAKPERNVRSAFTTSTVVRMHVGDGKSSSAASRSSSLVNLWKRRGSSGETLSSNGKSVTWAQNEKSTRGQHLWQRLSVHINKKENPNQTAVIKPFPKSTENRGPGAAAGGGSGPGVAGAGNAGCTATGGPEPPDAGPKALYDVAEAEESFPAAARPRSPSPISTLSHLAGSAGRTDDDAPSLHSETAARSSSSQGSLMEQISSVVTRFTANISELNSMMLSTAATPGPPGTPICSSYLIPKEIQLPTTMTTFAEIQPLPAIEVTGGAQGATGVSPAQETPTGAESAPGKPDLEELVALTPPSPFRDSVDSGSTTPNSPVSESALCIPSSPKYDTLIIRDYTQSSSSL

IC50	Structure (SMILES)
250 nM	CCOC(=O)c1c(C)nc(C#Cc2ccccc2)n1C [Example 1, 3,5-Dimethyl-2-phenylethynyl-3H-imidazole-4-carboxylic acid ethyl ester]
2400 nM	CCOC(=O)c1[nH]c(C#Cc2ccccc2)nc1C [Example 2, 5-Methyl-2-phenylethynyl-3H-imidazole-4-carboxylic acid ethyl ester]
350 nM	CCOC(=O)c1c(C)nc(C#Cc2cccc(OC)c2)n1C [Example 3, 2-(3-Methoxy-phenylethynyl)-3,5-dimethyl-3H-imidazole-4-carboxylic acid ethyl ester]
< 10000 nM	CCOC(=O)c1nc(C#Cc2ccccc2)n(-c2ccccc2)c1C [Example 8, 5-Methyl-1-phenyl-2-phenylethynyl-1H-imidazole-4-carboxylic acid ethyl ester]
< 10000 nM	CCOC(=O)c1c(C)nc(C#Cc2ccc(Cl)cc2)n1C [Example 14, 2-(4-Chloro-phenylethynyl)-3,5-dimethyl-3H-imidazole-4-carboxylic acid ethyl ester]
210 nM	CCOC(=O)c1c(C)nc(C#Cc2ccc(-c3ccccc3)cc2)n1C [Example 16, 2-Biphenyl-4-ylethynyl-3,5-dimethyl-3H-imidazole-4-carboxylic acid ethyl ester]
90 nM	CCOC(=O)c1c(C)nc(C#Cc2ccccc2F)n1C [Example 17, 2-(2-Fluoro-phenylethynyl)-3,5-dimethyl-3H-imidazole-4-carboxylic acid ethyl ester]
1100 nM	Cn1ccnc1C#Cc1ccccc1Cl [Example 20, 2-(2-Chloro-phenylethynyl)-1-methyl-1H-imidazole]
220 nM	Cn1cncc1C#Cc1ccccc1 [Example 22, 1-Methyl-5-phenylethynyl-1H-imidazole]
580 nM	COc1ccc2[nH]c(C#Cc3ccccc3)c(CCNC(C)=O)c2c1 [Example 23, N-[2-(5-Methoxy-2-phenylethynyl-1H-indol-3-yl)-ethyl]-acetamide]
1790 nM	Cn1cnc(C#Cc2ccccc2)c1C=O [Example 27, 3-Methyl-5-phenylethynyl-3H-imidazole-4-carbaldehyde]
3360 nM	C(#Cc1c[nH]cn1)c1ccccc1 [Example 28, 4-Phenylethynyl-1H-imidazole]
500 nM	Cn1cnc(C#Cc2ccccc2)c1 [Example 29, 1-Methyl-4-phenylethynyl-1H-imidazole]
5000 to 10000 nM	Cc1cc(C#Cc2ccccc2)n(C)n1 [Example 31, 1,3-Dimethyl-5-phenylethynyl-1H-pyrazole]
5000 to 10000 nM	COc1cc(C)c(C=Cc2nc(C(C)C)c(C(C)C)n2C)c(C)c1C [Example 36, 4,5-Diisopropyl-2-[2-(4-methoxy-2,3,6-trimethyl-phenyl)-vinyl]-1-methyl-1H-imidazole]
5000 to 10000 nM	COc1ccc(C=Cc2nc(C(C)C)c(C(C)C)n2C)cc1 [Example 37, 4,5-diisopropyl-2-[2-(4-methoxy-phenyl)-vinyl]-1-methyl-1H-imidazole]
3250 nM	Cc1ccc(C=Cc2nc(C(C)C)c(C(C)C)n2C)cc1 [Example 42, 4,5-Diisopropyl-1-methyl-2-(2-p-tolyl-vinyl)-1H-imidazole]
3060 nM	Cn1cnc(Br)c1C=Cc1ccccc1 [Example 43, 4-Bromo-1-methyl-5-styryl-1H-imidazole]
8000 nM	Cn1cncc1C=Cc1ccccc1 [Example 44, 1-Methyl-5-styryl-1H-imidazole]

Second part, the molecule before the results:

Structure (SMILES)	IC50
Cn1ccnc1C#Cc1ccccc1 [Example 4, 1-Methyl-2-phenylethynyl-1H-imidazole]	720 nM
O=[N+]([O-])c1cnc(C#Cc2ccccc2)n1CCO [Example 5, 2-(5-Nitro-2-phenylethynyl-imidazol-1-yl)-ethanol]	2110 nM
C(#Cc1ncc[nH]1)c1ccccc1 [Example 6, 2-Phenylethynyl-1H-imidazole]	200 nM
CCOC(=O)c1c(C)nc(C#Cc2cccc(C)c2)n1C [Example 9, 3,5-dimethyl-2-m-tolylethynyl-3H-imidazole-4-carboxylic acid ethyl ester]	130 nM
CCOC(=O)c1c(C)nc(C#Cc2cccc(NC(C)=O)c2)n1C [Example 10, 2-(3-Acetylamino-phenylethynyl)-3,5-dimethyl-3H-imidazole-4-carboxylic acid ethyl ester]	2120 nM
CCOC(=O)c1c(C)nc(C#Cc2cccc(-n3c(C)ccc3C)c2)n1C [Example 11]	180 nM
Cc1noc(-c2c(C)nc(C#Cc3ccccc3)n2C)n1 [Example 12, 5-(3,5-Dimethyl-2-phenylethynyl-3H-imidazol-4-yl)-3-methyl-[1,2,4]oxadiazole]	11 nM
CCOC(=O)c1c(C)nc(C#Cc2ccc(F)cc2)n1C [Example 15, 2-(4-Fluoro-phenylethynyl)-3,5-dimethyl-3H-imidazole-4-carboxylic acid ethyl ester]	250 nM
Cn1ccnc1C#Cc1ccccc1F [Example 18, 2-(2-Fluoro-phenylethynyl)-1-methyl-1H-imidazole]	70 nM
CCOC(=O)c1c(C)nc(C#Cc2ccc(N)cc2)n1C [Example 19, 2-(4-Amino-phenylethynyl)-3,5-dimethyl-3H-imidazole-4-carboxylic acid ethyl ester]	1530 nM
CCOC(=O)Cn1c(C#Cc2ccccc2)nc(Cl)c1Cl [Example 21, (4,5-Dichloro-2-phenylethynyl-imidazol-1-yl)-acetic acid ethyl ester]	520 nM
C(#Cc1ncn2c1CSc1ncccc1-2)c1ccccc1 [Example 24, 3-Phenylethynyl-4H-5-thia-2,6,9b-triaza-cyclopenta[a]naphthalene]	150 nM
Cc1nc(C#Cc2ccccc2)c([N+](=O)[O-])n1CC(O)CCl (stereo not drawn) [Example 26, 1-Chloro-3-(2-methyl-5-nitro-4-phenylethynyl-imidazol-1-yl)-propan-2-ol]	230 nM
Cc1nc(C#Cc2ccccc2)c([N+](=O)[O-])n1C [Example 30, 1,2-Dimethyl-5-nitro-4-phenylethynyl-1H-imidazole]	20 nM
CC(C)c1nc(C=Cc2ccccc2)n(C)c1C(C)C [Example 32, 4,5-Diisopropyl-1-methyl-2-styryl-1H-imidazole]	1820 nM
CC(C)c1nc(C=Cc2ccc(F)cc2)n(C)c1C(C)C [Example 33, 2-[2-(4-Fluoro-phenyl)-vinyl]-4,5-diisopropyl-1-methyl-1H-imidazole]	5000 to 10000 nM
CC(C)c1nc(C=Cc2ccc(Cl)cc2)n(C)c1C(C)C [Example 34, 2-[2-(4-Chloro-phenyl)-vinyl]-4,5-diisopropyl-1-methyl-1H-imidazole]	5000 to 10000 nM
CCCCOc1ccc(C=Cc2nc(C(C)C)c(C(C)C)n2C)cc1 [Example 35, 2-[2-(4-Butoxy-phenyl)-vinyl]-4,5-diisopropyl-1-methyl-1H-imidazole]	5000 to 10000 nM

System: not given
Experiment: not given
Conditions: not given

melting point	Structure (SMILES)
137 °C	Cc1noc(-c2c(C)nc(C#Cc3ccccc3)n2C)n1 [Example 12, 5-(3,5-Dimethyl-2-phenylethynyl-3H-imidazol-4-yl)-3-methyl-[1,2,4]oxadiazole]
120 °C	Cc1nc(C#Cc2ccccc2)n(C)c1-c1nc(C2CC2)no1 [Example 13, 3-Cyclopropyl-5-(3,5-dimethyl-2-phenylethynyl-3H-imidazol-4-yl)-[1,2,4]oxadiazole]
